Measured values reported in patent US6528494B2 (priority 1996, dated 2003).
Counter-ions that a name gives are not always drawn.

Experiments:
[1] = tested on: lung eosinophil accumulation; assay: Antigen-induced lung eosinophil accumulation in sensitised guinea pigs; format: in vivo, guinea pig; details: airstream concentration; inhaled route, 30 min aerosol before ovalbumin challenge; lavage 24 h after challenge
Procedure: (2) Antigen-induced lung eosinophil accumulation in sensitised guinea pigs.
Ovalbumin sensitised guinea pigs were dosed with mepyramine (1 mg/kg ip) to protect against anaphylactic bronchospasm. A compound of the invention was then given by the inhaled route (30 min breathing of an aerosol of the compound) immediately prior to ovalbumin challenge (30 min breathing of an aerosol generated from a 50 ug/ml solution of ovalbumin). Twenty four hours after challenge, the guinea pigs were killed and the lungs lavaged. Total and differential leucocyte counts were then obtained for the bronchoalveolar lavage fluid and the dose of test compound giving a 50% reduction in eosinophil accumulation (ED50) was determined (Sanjar et al. 1992).

[2] = target: adenosine 2a receptor (Homo sapiens, UniProt P29274); assay: Agonist activity against adenosine 2a receptor (CHO cells, cAMP/SPAP reporter); format: cell-based; details: CHO cells transfected with human receptor; basal cAMP via SPAP; mean of all the versions tested
Sequence of adenosine 2a receptor (P29274 whole entry): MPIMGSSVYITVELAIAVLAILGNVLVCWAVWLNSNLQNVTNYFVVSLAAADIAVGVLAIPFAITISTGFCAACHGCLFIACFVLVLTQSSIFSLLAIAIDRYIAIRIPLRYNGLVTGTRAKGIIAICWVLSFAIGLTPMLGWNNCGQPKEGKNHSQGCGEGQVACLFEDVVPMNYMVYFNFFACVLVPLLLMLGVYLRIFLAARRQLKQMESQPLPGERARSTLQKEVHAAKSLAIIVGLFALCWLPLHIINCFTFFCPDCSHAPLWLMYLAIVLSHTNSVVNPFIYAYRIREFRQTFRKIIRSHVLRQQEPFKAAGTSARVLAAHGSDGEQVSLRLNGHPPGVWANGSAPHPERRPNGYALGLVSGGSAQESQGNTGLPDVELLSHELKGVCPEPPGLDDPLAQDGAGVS
Procedure: (§1) (1) Agonist activity against adenosine 2a, adenosine 1 and adenosine 3 receptor subtypes.
(§2) The effect of test compounds was determined by their effects on basal levels of cAMP (A2a) or on forskolin-enhanced cAMP (A1 and A3) as reflected by changes in levels of SPAP.

[3] = target: T1, adenosine 1 receptor (Homo sapiens, UniProt P30542); assay: Agonist activity against adenosine 1 receptor (CHO cells, forskolin-enhanced cAMP/SPAP reporter); format: cell-based; details: CHO cells transfected with human receptor; forskolin-enhanced cAMP via SPAP; mean of all the versions tested
T1 sequence (P30542 1-326): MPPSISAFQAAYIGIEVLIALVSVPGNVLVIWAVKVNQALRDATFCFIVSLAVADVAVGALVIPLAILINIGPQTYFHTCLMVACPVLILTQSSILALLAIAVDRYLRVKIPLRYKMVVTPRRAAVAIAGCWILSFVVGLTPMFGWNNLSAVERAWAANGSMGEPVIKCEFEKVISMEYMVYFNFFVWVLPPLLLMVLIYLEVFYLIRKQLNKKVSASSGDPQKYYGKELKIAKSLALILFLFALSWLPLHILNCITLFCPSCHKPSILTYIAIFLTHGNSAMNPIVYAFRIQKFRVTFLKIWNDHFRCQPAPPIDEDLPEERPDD
Procedure: as §1, §2

[4] = target: T2, adenosine 3 receptor (Homo sapiens, UniProt P0DMS8); assay: Agonist activity against adenosine 3 receptor (CHO cells, forskolin-enhanced cAMP/SPAP reporter); format: cell-based; details: CHO cells transfected with human receptor; forskolin-enhanced cAMP via SPAP; mean of all the versions tested
T2 sequence (P0DMS8 1-318): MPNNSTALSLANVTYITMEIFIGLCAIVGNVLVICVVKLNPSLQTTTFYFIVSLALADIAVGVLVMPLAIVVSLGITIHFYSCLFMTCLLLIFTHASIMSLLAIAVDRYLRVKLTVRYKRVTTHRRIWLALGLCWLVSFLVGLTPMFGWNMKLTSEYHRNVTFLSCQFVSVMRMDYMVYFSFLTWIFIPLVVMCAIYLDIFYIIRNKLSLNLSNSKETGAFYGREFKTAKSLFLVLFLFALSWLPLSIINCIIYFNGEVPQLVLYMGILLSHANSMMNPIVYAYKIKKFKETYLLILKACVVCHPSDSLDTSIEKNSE
Procedure: as §1, §2

Molecule | ED50 (50% reduction in eosinophil accumulation) [1] [ng/mL] | A2a EC50 as a ratio of that of NECA [2] | A1 EC50 as a ratio of that of NECA [3] | A3 EC50 as a ratio of that of NECA [4]
CCn1nnc([C@H]2O[C@@H](n3cnc4c(NCC(c5ccccc5)c5ccccc5)nc(N[C@H]5CC[C@H](N)CC5)nc43)[C@H](O)[C@@H]2O)n1.Cl.Cl (relative stereo) [Example 1a, rel-(2R,3R,4S,5R)-2-[2-(trans-4-Amino-cyclohexylamino)-6-(2,2-diphenyl-ethylamino)-purin-9-yl]-5-(2-ethyl-2H-tetrazol-5-yl)-tetrahydro-furan-3,4-diol Dihydrochloride] | 6 |  |  | 
CCn1nnc([C@H]2O[C@@H](n3cnc4c(N)nc(N[C@H](CO)Cc5ccccc5)nc43)[C@H](O)[C@@H]2O)n1.Cl [Example 11a, (2R,3R,4S,5R)-2-[6-Amino-2-(1S-hydroxymethyl-2-phenyl-ethylamino)-purin-9-yl]-5-(2-ethyl-2H-tetrazol-5-yl)-tetrahydro-furan-3,4-diol Hydrochloride] | 6 |  |  | 
Cn1nnc(C2OC(n3cnc4c(NCc5cccc(I)c5)nc(NCCN5CCCC5)nc43)C(O)C2O)n1.O=CO.O=CO [Example 108, (2R,3R,4S,5R)-2-[6-(3-Iodo-benzylamino)-2-(2-pyrrolidin-1-yl-ethylamino)-purin-9-yl]-5-(2-methyl-2H-tetrazol-5-yl)-tetrahydro-furan-3,4-diol bis(Formate)] |  | 2.25 | 111.30 | >201
Cn1nnc(C2OC(n3cnc4c(NCc5cccc(I)c5)nc(NC(CO)Cc5ccccc5)nc43)C(O)C2O)n1 [Example 109, (2R,3R,4S,5R)-2-[2-(1S-Hydroxymethyl-2-phenyl-ethylamino)-6-(3-iodo-benzylamino)-purin-9-yl]-5-(2-methyl-2H-tetrazol-5-yl)-tetrahydro-furan-3,4-diol Formate] |  | 8.54 | 17.70 | >446
Cn1nnc(C2OC(n3cnc4c(NC(CO)Cc5ccccc5)nc(NC(CO)Cc5ccccc5)nc43)C(O)C2O)n1 [Example 110, (2R,3R,4S,5R)-2-[2,6-Bis-(1S-Hydroxymethyl-2-phenyl-ethylamino)-purin-9-yl]-5-(2-methyl-2H-tetrazol-5-yl)-tetrahydro-furan-3,4-diol Formate] |  | 5.00 | 3.13 | >315
Cn1nnc(C2OC(n3cnc4c(NC(CO)Cc5ccccc5)nc(NCCN5CCCC5)nc43)C(O)C2O)n1 [Example 111, (2R,3R,4S,5R)-2-[6-(1S-Hydroxymethyl-2-phenyl-ethylamino)-2-(2-pyrrolidin-1-yl-ethylamino)-purin-9-yl]-5-(2-methyl-2H-tetrazol-5-yl)-tetrahydro-furan-3,4-diol bis(Formate)] |  | 2.92 | 298.50 | >315
CCn1nnc([C@H]2O[C@@H](n3cnc4c(NCC(c5ccccc5)c5ccccc5)nc(NC5CCOCC5)nc43)[C@H](O)[C@@H]2O)n1.O=C(O)C(F)(F)F [Example 113, (2R, 3R,4S, 5R)-2-[6-(2,2-Diphenyl-ethylamino)-2-(tetrahydro-pyran-4-ylamino)-purin-9-yl]-5-(2-ethyl-2H-tetrazol-5-yl)-tetrahydro-furan-3,4-diol Trifluoroacetate] |  | 0.72 | 184.4 | >297.0
CCn1nnc([C@H]2O[C@@H](n3cnc4c(NCC(c5ccccc5)c5ccccc5)nc(NC5CCSCC5)nc43)[C@H](O)[C@@H]2O)n1.O=C(O)C(F)(F)F [Example 114] |  | 0.58 | 242.2 | >2972.0
CCn1nnc([C@H]2O[C@@H](n3cnc4c(NCC(c5ccccc5)c5ccccc5)nc(NC5CCS(=O)(=O)CC5)nc43)[C@H](O)[C@@H]2O)n1.O=C(O)C(F)(F)F [Example 115, (2R,3R,4S,5R)-2-[6-(2,2-Diphenyl-ethylamino)-2-(1,1--dioxo-hexahydro-1.lamda.6-thiopyran-4-ylamino)-purin-9-yl]-5-(2-ethyl-2H-tetrazol-5-yl)-tetrahydro-furan-3,4-diol Trifluoroacetate] |  | 0.36 | 37.7 | >297.0
(2R,3R,4S,5R)-2-[2-(1-Benzyl-pyrrolidin-3-ylamino)-6-cyclopentylamino-purin-9-yl]-5-(2-ethyl-2H-tetrazol-5-yl)-tetrahydro-furan-3,4-diol bis(Formate) [Example 66] |  | 1.53 | 48.60 | >158
(2R,3R,4S,5R)-2-[2-(trans-4-Amino-cyclohexylamino)-6-cyclopentylamino-purin-9-yl]-5-(2-methyl-2H-tetrazol-5-yl)-tetrahydro-furan-3,4-diol Diformate [Example 92] |  | 1.24 | 253.70 | >192
(2R,3R,4S,5R)-2-[6-(1-Ethyl-propylamino)-2-(2-piperidin-1-yl-ethylamino)-purin-9-yl]-5-(2-methyl-2H-tetrazol-5-yl)-tetrahydro-furan-3,4-diol Diformate [Example 24] |  | 0.36 | >4798 | >157
(2R,3R,4S,5R)-2-[6-Cyclopentylamino-2-(2-pyrrolidin-1-yl-ethylamino)-purin-9-yl]-5-(2-methyl-2H-tetrazol-5-yl)-tetrahydro-furan-3,4-diol bis(Formate) [Example 112] |  | 2.19 | 472.30 | >315
(2R,3S,4R,5R)-2-(2-Ethyl-2H-tetrazol-5-yl)-5-[6-(1S-hydroxymethyl-2-ethylamino)-2-(2-morpholin-4-yl-ethylamino)-purin-9-yl]-tetrahydro-furan-3,4-diol Formate [Example 78] |  | 4.00 | 31.00 | >181
